Data from ChEMBL document CHEMBL3045446, “In vitro antimicrobial and antimycobacterial activity of some chalcones and their derivatives” (2013).
≈ marks a conversion by molar mass, not a printed value.

Assays:
Type in all cases: functional
Staphylococcus aureus [1] = test: Antimicrobial activity against Staphylococcus aureus MTCC 96 assessed as growth inhibition after 24 hr by agar streak dilution method; settings: MTCC 96, 24 h
Pseudomonas aeruginosa [2] = test: Antimicrobial activity against Pseudomonas aeruginosa MTCC 741 assessed as growth inhibition after 24 hr by agar streak dilution method; settings: MTCC 741, 24 h
Escherichia coli [3] = test: Antimicrobial activity against Escherichia coli MTCC 739 assessed as growth inhibition after 24 hr by agar streak dilution method; settings: MTCC 739, 24 h
Proteus vulgaris [4] = test: Antimicrobial activity against Proteus vulgaris MTCC 1771 assessed as growth inhibition after 24 hr by agar streak dilution method; settings: MTCC 1771, 24 h
Shigella flexneri [5] = test: Antimicrobial activity against Shigella flexneri MTCC1457 assessed as diameter of growth inhibition zone after 24 hr
Aspergillus niger [6] = test: Antimicrobial activity against Aspergillus niger MTCC 282 assessed as diameter of growth inhibition zone after 48 hr
Proteus vulgaris [7] = test: Antimicrobial activity against Proteus vulgaris MTCC 1771 assessed as diameter of growth inhibition zone after 24 hr
Aspergillus niger [8] = test: Antimicrobial activity against Aspergillus niger MTCC 282 assessed as growth inhibition after 48 hr by agar streak dilution method; settings: MTCC 282, 48 h
Klebsiella pneumoniae [9] = test: Antimicrobial activity against Klebsiella pneumoniae MTCC 109 assessed as diameter of growth inhibition zone after 24 hr
Aspergillus clavatus [10] = test: Antimicrobial activity against Aspergillus clavatus MTCC 1323 assessed as diameter of growth inhibition zone after 48 hr
Aspergillus clavatus [11] = test: Antimicrobial activity against Aspergillus clavatus MTCC 1323 assessed as growth inhibition after 48 hr by agar streak dilution method; settings: MTCC 1323, 48 h
Klebsiella pneumoniae [12] = test: Antimicrobial activity against Klebsiella pneumoniae MTCC 109 assessed as growth inhibition after 24 hr by agar streak dilution method; settings: MTCC 109, 24 h
Bacillus cereus [13] = test: Antimicrobial activity against Bacillus cereus MTCC 430 assessed as growth inhibition after 24 hr by agar streak dilution method; settings: MTCC 430, 24 h
Shigella flexneri [14] = test: Antimicrobial activity against Shigella flexneri MTCC1457 assessed as growth inhibition after 24 hr by agar streak dilution method; settings: MTCC1457, 24 h
Bacillus cereus [15] = test: Antimicrobial activity against Bacillus cereus MTCC 430 assessed as diameter of growth inhibition zone after 24 hr
[16] = tested on: Mycobacterium tuberculosis; test: Antituberculosis activity against Mycobacterium tuberculosis H37Rv assessed as growth inhibition after 12 to 28 days by L-J MIC method; settings: for MIC: Mycobacterium tuberculosis, H37Rv
Pseudomonas aeruginosa [17] = test: Antimicrobial activity against Pseudomonas aeruginosa MTCC 741 assessed as diameter of growth inhibition zone after 24 hr
Candida albicans [18] = test: Antimicrobial activity against Candida albicans MTCC 183 assessed as diameter of growth inhibition zone after 48 hr
Candida albicans [19] = test: Antimicrobial activity against Candida albicans MTCC 183 assessed as growth inhibition after 48 hr by agar streak dilution method; settings: MTCC 183, 48 h
Aspergillus fumigatus [20] = test: Antimicrobial activity against Aspergillus fumigatus MTCC 343 assessed as growth inhibition after 48 hr by agar streak dilution method; settings: MTCC 343, 48 h
Salmonella typhi [21] = test: Antimicrobial activity against Salmonella enterica subsp. enterica serovar Typhi MTCC 733 assessed as growth inhibition after 24 hr by agar streak dilution method; settings: MTCC 733, 24 h
Aspergillus fumigatus [22] = test: Antimicrobial activity against Aspergillus fumigatus MTCC 343 assessed as diameter of growth inhibition zone after 48 hr
Salmonella typhi [23] = test: Antimicrobial activity against Salmonella enterica subsp. enterica serovar Typhi MTCC 733 assessed as diameter of growth inhibition zone after 24 hr
Staphylococcus aureus [24] = test: Antimicrobial activity against Staphylococcus aureus MTCC 96 assessed as diameter of growth inhibition zone after 24 hr
Escherichia coli [25] = test: Antimicrobial activity against Escherichia coli MTCC 739 assessed as diameter of growth inhibition zone after 24 hr

| Compound | MIC (Staphylococcus aureus [1]) [µg/mL] | MIC (Pseudomonas aeruginosa [2]) [µg/mL] | MIC (Escherichia coli [3]) [µg/mL] | MIC (Proteus vulgaris [4]) [µg/mL] | diameter of the inhibition zone (DIZ) (Shigella flexneri [5]) [mm] | diameter of the inhibition zone (DIZ) (Aspergillus niger [6]) [mm] | diameter of the inhibition zone (DIZ) (Proteus vulgaris [7]) [mm] | MIC (Aspergillus niger [8]) [µg/mL] | diameter of the inhibition zone (DIZ) (Klebsiella pneumoniae [9]) [mm] | diameter of the inhibition zone (DIZ) (Aspergillus clavatus [10]) [mm] | MIC (Aspergillus clavatus [11]) [µg/mL] | MIC (Klebsiella pneumoniae [12]) [µg/mL] | MIC (Bacillus cereus [13]) [µg/mL] | MIC (Shigella flexneri [14]) [µg/mL] | diameter of the inhibition zone (DIZ) (Bacillus cereus [15]) [mm] | growth inhibition (GI) [16] [%] | MIC [16] [µg/mL] | diameter of the inhibition zone (DIZ) (Pseudomonas aeruginosa [17]) [mm] | diameter of the inhibition zone (DIZ) (Candida albicans [18]) [mm] | MIC (Candida albicans [19]) [µg/mL] | further results |
| --- | --- | --- | --- | --- | --- | --- | --- | --- | --- | --- | --- | --- | --- | --- | --- | --- | --- | --- | --- | --- | --- |
| CC(=O)N1N=C(c2ccc(Nc3cc(=O)oc4ccccc34)cc2)CC1c1ccccc1Br (stereo not drawn) | 100 (≈ 199 µM) | 100 (≈ 199 µM) | 100 (≈ 199 µM) | 100 (≈ 199 µM) | 14 | 15 | 15 | 100 (≈ 199 µM) | 16 | 14 | 100 (≈ 199 µM) | 100 (≈ 199 µM) | 100 (≈ 199 µM) | 100 (≈ 199 µM) | 14 | 98 | 200 (≈ 398 µM) | 12 | 21 | 25 (≈ 49.8 µM) | MIC (Aspergillus fumigatus [20]): 50 µg/mL (≈ 99.5 µM); MIC (Salmonella typhi [21]): 100 µg/mL (≈ 199 µM); diameter of the inhibition zone (DIZ) (Aspergillus fumigatus [22]): 17 mm; diameter of the inhibition zone (DIZ) (Salmonella typhi [23]): 15 mm; diameter of the inhibition zone (DIZ) (Staphylococcus aureus [24]): 16 mm; diameter of the inhibition zone (DIZ) (Escherichia coli [25]): 14 mm |
| Cc1ccc(-c2cc(-c3ccc(Nc4cc(=O)oc5ccccc45)cc3)nc(N)n2)cc1 | 50 (≈ 119 µM) | 50 (≈ 119 µM) | 100 (≈ 238 µM) | 25 (≈ 59.5 µM) | 22 | 21 | 21 | 25 (≈ 59.5 µM) | 16 | 16 | 100 (≈ 238 µM) | 100 (≈ 238 µM) | 50 (≈ 119 µM) | 25 (≈ 59.5 µM) | 19 | 98 | 200 (≈ 476 µM) | 19 | 16 | 50 (≈ 119 µM) | MIC (Aspergillus fumigatus [20]): 50 µg/mL (≈ 119 µM); MIC (Salmonella typhi [21]): 50 µg/mL (≈ 119 µM); diameter of the inhibition zone (DIZ) (Aspergillus fumigatus [22]): 18 mm; diameter of the inhibition zone (DIZ) (Salmonella typhi [23]): 18 mm; diameter of the inhibition zone (DIZ) (Staphylococcus aureus [24]): 18 mm; diameter of the inhibition zone (DIZ) (Escherichia coli [25]): 15 mm |
| COc1ccc(/C=C/C(=O)c2ccc(Nc3cc(=O)oc4ccccc34)cc2)cc1 | 100 (≈ 252 µM) | 100 (≈ 252 µM) | 50 (≈ 126 µM) | 50 (≈ 126 µM) | 15 | 20 | 18 | 50 (≈ 126 µM) | 16 | 18 | 50 (≈ 126 µM) | 100 (≈ 252 µM) | 100 (≈ 252 µM) | 100 (≈ 252 µM) | 13 | 96 | 250 (≈ 629 µM) | 16 | 16 | 100 (≈ 252 µM) | MIC (Aspergillus fumigatus [20]): 100 µg/mL (≈ 252 µM); MIC (Salmonella typhi [21]): 100 µg/mL (≈ 252 µM); diameter of the inhibition zone (DIZ) (Aspergillus fumigatus [22]): 16 mm; diameter of the inhibition zone (DIZ) (Salmonella typhi [23]): 14 mm; diameter of the inhibition zone (DIZ) (Staphylococcus aureus [24]): 15 mm; diameter of the inhibition zone (DIZ) (Escherichia coli [25]): 18 mm |
| Cc1ccc(-c2cc(-c3ccc(Nc4cc(=O)oc5ccccc45)cc3)nc(N)c2C#N)cc1 | 25 (≈ 56.2 µM) | 12.5 (≈ 28.1 µM) | 25 (≈ 56.2 µM) | 12.5 (≈ 28.1 µM) | 25 | 24 | 24 | 12.5 (≈ 28.1 µM) | 18 | 20 | 25 (≈ 56.2 µM) | 50 (≈ 112 µM) | 25 (≈ 56.2 µM) | 12.5 (≈ 28.1 µM) | 23 | 98 | 100 (≈ 225 µM) | 22 | 28 | 3.12 (≈ 7.02 µM) | MIC (Aspergillus fumigatus [20]): 25 µg/mL (≈ 56.2 µM); MIC (Salmonella typhi [21]): 25 µg/mL (≈ 56.2 µM); diameter of the inhibition zone (DIZ) (Aspergillus fumigatus [22]): 21 mm; diameter of the inhibition zone (DIZ) (Salmonella typhi [23]): 21 mm; diameter of the inhibition zone (DIZ) (Staphylococcus aureus [24]): 21 mm; diameter of the inhibition zone (DIZ) (Escherichia coli [25]): 20 mm |
| Nc1nc(-c2ccc(Nc3cc(=O)oc4ccccc34)cc2)cc(-c2ccc([N+](=O)[O-])cc2)n1 | 100 (≈ 222 µM) | 100 (≈ 222 µM) | 100 (≈ 222 µM) | 100 (≈ 222 µM) | 16 | 17 | 14 | 50 (≈ 111 µM) | 18 | 20 | 25 (≈ 55.4 µM) | 50 (≈ 111 µM) | 100 (≈ 222 µM) | 100 (≈ 222 µM) | 16 | 96 | 500 (≈ 1110 µM) | 16 | 19 | 50 (≈ 111 µM) | MIC (Aspergillus fumigatus [20]): 100 µg/mL (≈ 222 µM); MIC (Salmonella typhi [21]): 25 µg/mL (≈ 55.4 µM); diameter of the inhibition zone (DIZ) (Aspergillus fumigatus [22]): 16 mm; diameter of the inhibition zone (DIZ) (Salmonella typhi [23]): 21 mm; diameter of the inhibition zone (DIZ) (Staphylococcus aureus [24]): 15 mm; diameter of the inhibition zone (DIZ) (Escherichia coli [25]): 17 mm |
| N#Cc1c(-c2ccccc2)cc(-c2ccc(Nc3cc(=O)oc4ccccc34)cc2)nc1N | 50 (≈ 116 µM) | 50 (≈ 116 µM) | 50 (≈ 116 µM) | 25 (≈ 58.1 µM) | 17 | 21 | 19 | 25 (≈ 58.1 µM) | 21 | 23 | 12.5 (≈ 29 µM) | 25 (≈ 58.1 µM) | 50 (≈ 116 µM) | 50 (≈ 116 µM) | 19 | 96 | 500 (≈ 1160 µM) | 18 | 19 | 25 (≈ 58.1 µM) | MIC (Aspergillus fumigatus [20]): 25 µg/mL (≈ 58.1 µM); MIC (Salmonella typhi [21]): 12.5 µg/mL (≈ 29 µM); diameter of the inhibition zone (DIZ) (Aspergillus fumigatus [22]): 21 mm; diameter of the inhibition zone (DIZ) (Salmonella typhi [23]): 23 mm; diameter of the inhibition zone (DIZ) (Staphylococcus aureus [24]): 17 mm; diameter of the inhibition zone (DIZ) (Escherichia coli [25]): 19 mm |
| CC(=O)N1N=C(c2ccc(Nc3cc(=O)oc4ccccc34)cc2)CC1c1ccc([N+](=O)[O-])cc1 (stereo not drawn) | 100 (≈ 213 µM) | 100 (≈ 213 µM) | 100 (≈ 213 µM) | 100 (≈ 213 µM) | 13 | 14 | <10 | 100 (≈ 213 µM) | 13 | 17 | 50 (≈ 107 µM) | 100 (≈ 213 µM) | 100 (≈ 213 µM) | 100 (≈ 213 µM) | 11 | 96 | 500 (≈ 1070 µM) | 11 | 15 | 100 (≈ 213 µM) | MIC (Aspergillus fumigatus [20]): 100 µg/mL (≈ 213 µM); MIC (Salmonella typhi [21]): 100 µg/mL (≈ 213 µM); diameter of the inhibition zone (DIZ) (Aspergillus fumigatus [22]): 13 mm; diameter of the inhibition zone (DIZ) (Salmonella typhi [23]): 17 mm; diameter of the inhibition zone (DIZ) (Staphylococcus aureus [24]): 12 mm; diameter of the inhibition zone (DIZ) (Escherichia coli [25]): 14 mm |
| N#Cc1c(-c2ccc(F)cc2)cc(-c2ccc(Nc3cc(=O)oc4ccccc34)cc2)nc1N | 6.25 (≈ 13.9 µM) | 3.12 (≈ 6.96 µM) | 3.12 (≈ 6.96 µM) | 3.12 (≈ 6.96 µM) | 24 | 23 | 29 | 12.5 (≈ 27.9 µM) | 28 | 28 | 6.25 (≈ 13.9 µM) | 3.12 (≈ 6.96 µM) | 3.12 (≈ 6.96 µM) | 12.5 (≈ 27.9 µM) | 28 | 97 | 50 (≈ 111 µM) | 29 | 22 | 12.5 (≈ 27.9 µM) | MIC (Aspergillus fumigatus [20]): 3.12 µg/mL (≈ 6.96 µM); MIC (Salmonella typhi [21]): 6.25 µg/mL (≈ 13.9 µM); diameter of the inhibition zone (DIZ) (Aspergillus fumigatus [22]): 28 mm; diameter of the inhibition zone (DIZ) (Salmonella typhi [23]): 26 mm; diameter of the inhibition zone (DIZ) (Staphylococcus aureus [24]): 25 mm; diameter of the inhibition zone (DIZ) (Escherichia coli [25]): 27 mm |
